What was measured:
MDA-MB-231 cells [1] = assay: Cell proliferation inhibition in breast cancer cell line, BrdU incorporation assay; type: cell-based; conditions: Homo sapiens, 96 h incubation
Source text: In this experiment, ACSL4 inhibition was studied through proliferation inhibition of MDA-MB-231 cells. Human breast cancer cell line MDA-MB-231 was generously provided by Dr. Vasilios Papadoupoulus (Research Institute of the McGill University Health Centre, Montreal, Canada) and obtained from the Lombardi Comprehensive Cancer Center (Georgetown University Medical Center, Washington D.C. USA), validated by ATCC Cell Line Authentication Service as 100% matching to ATCC cell line HTB-26 (MDA-MB-231).
The medium was then changed to serum-free medium.
After 24 h, the cells were switched to 10% FBS-supplemented D-MEM medium and incubated with i) ACSL4 inhibitor A, ii) ACSL4 inhibitor B or iii) rosiglitazone for 96 h.

PC-3 cells = assay: Cell proliferation inhibition in prostate cancer cell line, BrdU incorporation assay; type: cell-based; conditions: Homo sapiens, 96 h incubation
Experimental: ACSL4 inhibition was also assessed through proliferation inhibition in the Pc-3 cell line. PC-3 human prostate cancer cell line was generously provided by Dr. Susana Nowicky and validated by ATCC Cell Line Authentication Service as 100% matching to ATCC cell line CRL-1435 (PC-3).
The medium was then changed to serum-free medium. After 24 h, the cells were switched to 10% FBS-supplemented D-MEM medium and incubated with i) ACSL4 inhibitor A, ii) ACSL4 inhibitor B or iii) rosiglitazone for 96 h.

MDA-MB-231 cells [2] = assay: Migration assay (wound healing); type: cell-based, human; conditions: for concentration at which differences in wound area were evident: wound healing, 12 h after injury
Experimental: Cellular migration was measured by the wound healing assay. Cells (7×10^5 cells per well) were seeded in six-well plates. Cells were kept in complete (10% FBS) medium. Cell monolayer was wounded with a plastic tip across the monolayer cells. Wound closures were photographed by a phase contrast microscopy (40×) in the time point 4, 8 and 12 h after scraping. The width of the wound was determined with the Image Pro-Plus program.
For the wound healing assay, cells were incubated with either vehicle (control), the compound of the invention (inhibitor A) (50 μM) and Rosiglitazone (200 μM). At the specified time points, the distance between the wound edges was measured using Image-Pro Plus software. Results are shown in FIG. 4A-D. Data represent the mean±SD of three independent experiments.

MA-10 Leydig cells = assay: Steroidogenesis assay, progesterone production in cAMP-stimulated MA-10 Leydig cells; type: cell-based, mouse
Experimental: (§1) In the present example, ACSL4 inhibitor effects on steroid production were tested by stimulating MA 10 Leydig and Y1 adrenal cells with cAMP (0.5 mM) for 1 hour and assessing progesterone levels. MA-10 mouse Leydig tumor cells were generously provided by Dr. Mario Ascoli (University of Iowa, Iowa City, Iowa) and cultured in Waymouth MB/752 medium supplemented with 15% horse serum and antibiotics at 37° C. and 5% CO2 as previously described. The culture medium was replaced with serum-free Waymouth medium before experiments.

Y1 adrenal cells = assay: Steroidogenesis assay, progesterone production in cAMP-stimulated Y1 adrenal cells; type: cell-based, mouse; conditions: cAMP 0.5 mM, 1 hour
Experimental: as §1
Murine Y1 adrenocortical tumor cells were generously provided by Dr B Schimmer (University of Toronto, Toronto, Canada). Methods for the culture of Y1 mouse adrenal tumor cells (American Type Culture Collection, Rockville, MD, USA) have been published elsewhere (Schimmer 1979). Cells were maintained at 37 C in growth medium (HAM F10) containing fetal bovine (2·5%) and horse (12·5%) sera.

ACSL4 [3] = biological target: T1, ACSL4 (Homo sapiens, UniProt O60488); assay: 3H-arachidonic acid incorporation into MDA-MB-231 cells (ACSL4 activity); type: cell-based; conditions: serum stimulated
T1 construct: evaluated in MDA-MB-231 cells, in which ACSL4 activity plays a key role in tumor biology; endogenous in cells; host or cells: MDA-MB-231
Experimental: The effects of the ACSL4 inhibitor of the invention were evaluated in MDA-MB-231 cells, in which ACSL4 activity plays a key role in tumor biology.
(§2) ACSL4 activity was determined by measuring the transformation of arachidonic acid (AA) into enzyme product arachidonoyl-CoA (AA CoA), through ^3H-AA incorporation expressed as CPM/10^6 cells×10^−3 with results showing significant ACSL4 inhibition and a consequent significant reduction in AA CoA levels.
ACSL4 activity was stimulated with serum in tumoral cells.

ACSL4 [4] = biological target: T2, ACSL4 (Mus musculus, UniProt Q9QUJ7); assay: 3H-arachidonic acid incorporation into MA-10 Leydig cells (ACSL4 activity); type: cell-based; conditions: cAMP stimulated
T2 construct: evaluated in MA-10 Leydig cells, in which ACSL4 activity plays a key role in steroids synthesis; endogenous in cells; host or cells: MA-10 mouse Leydig tumor cells
Experimental: The effects of the ACSL4 inhibitor of the invention were evaluated in MA-10 Leydig cells, in which ACSL4 activity plays a key role in steroids synthesis.
as §2
ACSL4 activity was stimulated with cAMP.

MDA-MB231 cells = assay: Tumor growth in chick embryo chorioallantoic membrane (CAM) assay; type: in vivo; conditions: 100 μM, in ovo, Kruskal-Wallis p<0.0001
Experimental: In this experiment, the in vivo CAM assay platform of IPATIMUP was used to test the effect of inhibitor A to inhibit tumor growth in vivo. The CAMP is a preclinical in vivo model for drug screening.
Chicken eggs in the early phase of breeding are between in vitro and in vivo systems and provide a vascular test environment not only to study angiogenesis but also to study tumorigenesis. Since the lymphoid system is not fully developed until late stages of incubation, the chick embryo serves as a naturally immunodeficient host capable of sustaining grafted tissues and cells without species-specific restrictions.
As previously described, breast cancer MDA-MB231 cell line was used as a cell model to assess tumor cell growth. The effects of the compound were compared to those of the vehicle (DMEM).
The test compound, at the 10 μM and 100 μM, were inoculated together with 0.5×10^6 MDA-MB231 cells into a total of 53 eggs (distributed in two independent experiments), at embryonic development day (EDD) 10. The effects of the compound A were compared to those of the vehicle (DMEM).
Xenografted cells/tumors were treated in ovo on EDD12 and the experiment ended at EDD 14. At the endpoint, CAMs were fixed (with paraformaldehyde), excised from the embryo and photographed ex ovo.
The pictures were used to determine the number of neo vessels growing radially towards the inoculation site. […]

steroid synthesis = assay: Steroidogenesis in male mice stimulated with hCG; type: in vivo, BALB/c mice
Experimental: Thirty-day-old male BALB/c mice were treated with inhibitor A (10-100 μM) i.p at a dose of 50 ul/mice. After 3 hours the animal received a single s.c injection of human Chorionic Gonadotrophin (300 U/mice). After 3 hours the animal were sacrificed and assessed for testosterone, pregnenolone and progesterone levels FIG. 13 A, corticosterone FIG. 13 B and steroids in Pc-3 cell FIG. 13 C.

Solubility = type: physicochemical; conditions: compared with compound B

T2 sequence (Q9QUJ7 whole entry): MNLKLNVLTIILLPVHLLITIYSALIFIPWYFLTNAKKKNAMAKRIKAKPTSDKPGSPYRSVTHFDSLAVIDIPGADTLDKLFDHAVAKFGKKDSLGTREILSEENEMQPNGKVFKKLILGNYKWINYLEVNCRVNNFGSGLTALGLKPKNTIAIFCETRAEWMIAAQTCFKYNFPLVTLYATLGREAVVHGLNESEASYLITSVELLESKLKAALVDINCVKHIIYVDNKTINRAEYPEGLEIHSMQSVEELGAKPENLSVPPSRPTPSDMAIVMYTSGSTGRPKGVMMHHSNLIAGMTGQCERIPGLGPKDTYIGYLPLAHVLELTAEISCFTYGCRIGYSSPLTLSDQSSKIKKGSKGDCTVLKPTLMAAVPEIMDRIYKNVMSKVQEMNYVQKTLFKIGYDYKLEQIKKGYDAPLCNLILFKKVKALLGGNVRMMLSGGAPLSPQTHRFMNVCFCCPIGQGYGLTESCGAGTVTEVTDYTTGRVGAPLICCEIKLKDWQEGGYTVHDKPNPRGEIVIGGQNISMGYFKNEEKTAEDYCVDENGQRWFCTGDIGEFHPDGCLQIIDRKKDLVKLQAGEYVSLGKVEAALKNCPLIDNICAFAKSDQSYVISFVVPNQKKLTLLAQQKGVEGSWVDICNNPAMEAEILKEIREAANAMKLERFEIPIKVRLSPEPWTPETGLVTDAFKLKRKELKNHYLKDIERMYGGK
T1 sequence (O60488 whole entry): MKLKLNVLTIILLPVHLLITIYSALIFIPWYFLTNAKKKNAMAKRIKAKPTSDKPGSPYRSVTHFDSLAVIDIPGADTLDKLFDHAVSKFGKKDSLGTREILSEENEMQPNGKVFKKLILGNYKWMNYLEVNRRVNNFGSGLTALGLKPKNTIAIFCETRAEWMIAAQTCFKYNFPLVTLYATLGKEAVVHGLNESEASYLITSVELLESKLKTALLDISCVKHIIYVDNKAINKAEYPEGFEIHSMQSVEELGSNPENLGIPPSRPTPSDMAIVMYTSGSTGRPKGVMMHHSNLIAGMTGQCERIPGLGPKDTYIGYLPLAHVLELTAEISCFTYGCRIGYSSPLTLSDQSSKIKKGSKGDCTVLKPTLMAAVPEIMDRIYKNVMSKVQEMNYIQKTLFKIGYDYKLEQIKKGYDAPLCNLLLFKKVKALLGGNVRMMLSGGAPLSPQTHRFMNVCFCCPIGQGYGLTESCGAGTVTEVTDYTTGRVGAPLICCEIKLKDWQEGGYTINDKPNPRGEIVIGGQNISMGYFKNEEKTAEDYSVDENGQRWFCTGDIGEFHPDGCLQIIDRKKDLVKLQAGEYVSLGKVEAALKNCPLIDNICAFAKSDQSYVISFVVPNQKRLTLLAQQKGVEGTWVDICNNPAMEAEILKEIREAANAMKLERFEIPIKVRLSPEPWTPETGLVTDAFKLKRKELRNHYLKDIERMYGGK

IC50 (MDA-MB-231 cells [1])	IC50 (PC-3 cells)	solubility (Solubility)	SMILES	concentration at which differences in wound area were evident (MDA-MB-231 cells [2])	inhibition of progesterone synthesis (MA-10 Leydig cells)	release of progesterone (MA-10 Leydig cells; 10 μM, control 3.26 ng/ml)	inhibition of cell migration (wound healing) (MDA-MB-231 cells [2]; MDA-MB-231 cells, 50 μM)	minimal concentration significantly inhibiting steroid synthesis (MA-10 Leydig cells; cAMP 0.5 mM, 1 hour, progesterone)	minimal concentration significantly inhibiting steroid synthesis (Y1 adrenal cells)	concentrations for inhibiting ACSL4 activity (3H-AA incorporation) (ACSL4 [3])	concentrations for inhibiting ACSL4 activity (3H-AA incorporation) (ACSL4 [4])	tumor growth (tumor area) versus vehicle (MDA-MB231 cells)	minimal concentration significantly inhibiting steroid synthesis (steroid synthesis; i.p. 50 ul/mice, hCG stimulation (Example 12))	dose at which there was already response in inhibiting steroidogenesis (steroid synthesis; in vivo experiment in mice, FIG. 13 A)
180 µM	100 µM	–	CN(CCOc1ccc(CC2SC(=O)NC2=O)cc1)c1ccccn1 (centres unmarked) [Rosiglitazone, reference compound]	200 µM	–	–	–	–	–	–	–	–	–	–
–	–	–	CCC/C=C/C/C=C/C=C/C=N/NN=O [Triacsin C]	–	failed to inhibit progesterone synthesis	46.5 ng/mL	–	–	–	–	–	–	–	–
23 µM	27 µM	higher than the solubility of compound B	CC(=O)NC1=Nc2nc3ccccc3n2C(c2cn(-c3ccccc3)nc2-c2ccc(C)o2)N1 (centres unmarked) [inhibitor A, N-(4-(3-(5-methylfuran-2-yl)-1-phenyl-1H-pyrazol-4-yl)-3,4-dihydrobenzo[4,5]imidazo[1,2-a][1,3,5]triazin-2-yl)acetamide]	50 µM	–	–	succeeded in inhibiting the migration	5 µM	5 µM	lower than those required for rosiglitazone	lower than those required for rosiglitazone	Significant statistical differences	25 µM	10 µM
45 µM	48 µM	–	Cc1ccc(-c2nn(-c3ccccc3)cc2C2NC(N)=Nc3nc4ccccc4n32)o1 (centres unmarked) [inhibitor B, 4-(3-(5-methylfuran-2-yl)-1-phenyl-1H-pyrazol-4-yl)-3,4-dihydrobenzo[4,5]imidazo[1,2-a][1,3,5]triazin-2-amine]	100 µM	–	–	–	–	–	–	–	–	–	–
